{"source": "patent US20250290117A1", "about": "“MOLECULAR PHENOTYPIC ANTIMICROBIAL SUSCEPTIBILITY TESTING” (priority 2024, published 2025)", "assay_type_in_all_cases": "cell-based", "key": {"[1]": {"test_system": "Escherichia coli", "assay": "Traditional culture-based antimicrobial susceptibility test", "how_it_was_run": "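E. coli isolates underwent conventional growth, isolation and exposure to antimicrobials, giving a culture-based susceptibility call for each agent.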"}, "[2]": {"test_system": "pathogens of clinical samples", "assay": "Molecular phenotypic antimicrobial susceptibility test of clinical samples, direct PCR without a separate DNA purification step (Table 6)", "how_it_was_run": "(§1)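 Semi-quantitative PCR measures growth after exposure, so sensitivity means prevented growth and resistance means allowed growth. Exposure lasts 12-16 hours at single or multiple breakpoint concentrations in Mueller Hinton Broth, with the inoculum at 0.5 McFarland.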"}, "[3]": {"test_system": "pathogens of clinical samples", "assay": "Molecular phenotypic antimicrobial susceptibility test of clinical samples, extraction DNA purification step prior to PCR (Table 6)", "how_it_was_run": "as §1"}, "[4]": {"test_system": "Escherichia coli", "assay": "Molecular phenotypic antimicrobial susceptibility test (extraction or DNA purification prior to PCR)", "how_it_was_run": "as §1"}, "[5]": {"details": "E. coli, clinical sample of r10-r24"}, "[6]": {"details": "E. coli, clinical sample of r158-r172"}, "[7]": {"details": "K. aerogenes, clinical sample of r136-r150"}, "[8]": {"details": "K. pneumoniae, clinical sample of r121-r135"}, "[9]": {"details": "M. morganii, clinical sample of r55-r69"}, "[10]": {"details": "M. morganii, clinical sample of r70-r84"}, "[11]": {"details": "P. mirabilis, clinical sample of r25-r39"}, "[12]": {"details": "P. mirabilis, clinical sample of r40-r54"}}, "data": [{"smiles": "CO/N=C(\\C(=O)N[C@@H]1C(=O)N2C(C(=O)[O-])=C(C[N+]3(C)CCCC3)CS[C@H]12)c1csc(N)n1", "note": "[Cefepime]", "values": [{"measurement": "Traditional Culture Result", "setting": "[1]; E. coli isolate 4 (Table 3)", "value": "Resistant"}, {"measurement": "Traditional Culture Result", "setting": "[1]; E. coli isolate 5 (Table 3)", "value": "Sensitive"}, {"measurement": "Traditional Culture Result", "setting": "[1]; E. coli isolate JJ1887", "value": "Resistant"}, {"measurement": "Molecular Antibiotic Susceptibility Result", "setting": "[2]; [5]", "value": "Sensitive (Antimicrobial wells with pathogen load detected below the control wells (typically >2 cycle thresholds later) may be reported as Sensitive)"}, {"measurement": "Molecular Antibiotic Susceptibility Result", "setting": "[2]; [6]", "value": "Sensitive (Antimicrobial wells with pathogen load detected below the control wells (typically >2 cycle thresholds later) may be reported as Sensitive)"}, {"measurement": "Molecular Antibiotic Susceptibility Result", "setting": "[2]; [7]", "value": "Sensitive (Antimicrobial wells with pathogen load detected below the control wells (typically >2 cycle thresholds later) may be reported as Sensitive)"}, {"measurement": "Molecular Antibiotic Susceptibility Result", "setting": "[2]; [8]", "value": "Sensitive (Antimicrobial wells with pathogen load detected below the control wells (typically >2 cycle thresholds later) may be reported as Sensitive)"}, {"measurement": "Molecular Antibiotic Susceptibility Result", "setting": "[2]; [9]", "value": "Sensitive (Antimicrobial wells with pathogen load detected below the control wells (typically >2 cycle thresholds later) may be reported as Sensitive)"}, {"measurement": "Molecular Antibiotic Susceptibility Result", "setting": "[2]; [10]", "value": "Sensitive (Antimicrobial wells with pathogen load detected below the control wells (typically >2 cycle thresholds later) may be reported as Sensitive)"}, {"measurement": "Molecular Antibiotic Susceptibility Result", "setting": "[2]; [11]", "value": "Sensitive (Antimicrobial wells with pathogen load detected below the control wells (typically >2 cycle thresholds later) may be reported as Sensitive)"}, {"measurement": "Molecular Antibiotic Susceptibility Result", "setting": "[2]; [12]", "value": "Sensitive (Antimicrobial wells with pathogen load detected below the control wells (typically >2 cycle thresholds later) may be reported as Sensitive)"}, {"measurement": "Molecular Antibiotic Susceptibility Result", "setting": "[3]; [5]", "value": "Sensitive (Antimicrobial wells with pathogen load detected below the control wells (typically >2 cycle thresholds later) may be reported as Sensitive)"}, {"measurement": "Molecular Antibiotic Susceptibility Result", "setting": "[3]; [6]", "value": "Sensitive (Antimicrobial wells with pathogen load detected below the control wells (typically >2 cycle thresholds later) may be reported as Sensitive)"}, {"measurement": "Molecular Antibiotic Susceptibility Result", "setting": "[3]; [7]", "value": "Sensitive (Antimicrobial wells with pathogen load detected below the control wells (typically >2 cycle thresholds later) may be reported as Sensitive)"}, {"measurement": "Molecular Antibiotic Susceptibility Result", "setting": "[3]; [8]", "value": "Sensitive (Antimicrobial wells with pathogen load detected below the control wells (typically >2 cycle thresholds later) may be reported as Sensitive)"}, {"measurement": "Molecular Antibiotic Susceptibility Result", "setting": "[3]; [9]", "value": "Sensitive (Antimicrobial wells with pathogen load detected below the control wells (typically >2 cycle thresholds later) may be reported as Sensitive)"}, {"measurement": "Molecular Antibiotic Susceptibility Result", "setting": "[3]; [10]", "value": "Sensitive (Antimicrobial wells with pathogen load detected below the control wells (typically >2 cycle thresholds later) may be reported as Sensitive)"}, {"measurement": "Molecular Antibiotic Susceptibility Result", "setting": "[3]; [11]", "value": "Sensitive (Antimicrobial wells with pathogen load detected below the control wells (typically >2 cycle thresholds later) may be reported as Sensitive)"}, {"measurement": "Molecular Antibiotic Susceptibility Result", "setting": "[3]; [12]", "value": "Sensitive (Antimicrobial wells with pathogen load detected below the control wells (typically >2 cycle thresholds later) may be reported as Sensitive)"}, {"measurement": "Ct at Sensitive Breakpoint", "setting": "[4]; E. coli isolate 4, Ct at control (average) 17.5733", "value": 17.09}, {"measurement": "Molecular Antimicrobial Susceptibility Result", "setting": "[4]; E. coli isolate 4, at sensitive breakpoint", "value": "Resistant"}, {"measurement": "Ct at Sensitive Breakpoint", "setting": "[4]; E. coli isolate 5, Ct at control (average) 21.0933", "value": 26.77}, {"measurement": "Molecular Antimicrobial Susceptibility Result", "setting": "[4]; E. coli isolate 5, at sensitive breakpoint", "value": "Sensitive (Antimicrobial wells with pathogen load detected below the control wells (typically >2 cycle thresholds later) may be reported as Sensitive)"}]}]}
